Article PMC9099127 (Clinical and Translational Science, 2022)
Read-outs that look alike come from different tables or passages of the source.

Columns and labels:
[1] = after a 40 mg oral dose; range associated with therapeutic response; cited from earlier work
[2] = format: in vivo, human (children 6–17 years); details: single oral dose 1.2 mg/kg LBW

PAN plasma AUCtot, Mean (SD) ([2]; CYP2C19 genotype *1*1 (n=30)): 10.04 (6.81) µM per mg/kg TBW
PAN plasma AUCtot, Range ([2]; CYP2C19 genotype *1*1 (n=30)): [2.68–33.75] µM per mg/kg TBW
PAN plasma AUCtot, Mean (SD) ([2]; CYP2C19 genotype *1*2 (n=10)): 18.07 (11.20) µM per mg/kg TBW
PAN plasma AUCtot, Range ([2]; CYP2C19 genotype *1*2 (n=10)): [7.36–41.31] µM per mg/kg TBW
PAN plasma AUCtot, Mean (SD) ([2]; CYP2C19 genotype *1*17 (n=16)): 7.84 (4.52) µM per mg/kg TBW
PAN plasma AUCtot, Range ([2]; CYP2C19 genotype *1*17 (n=16)): [2.26–18.59] µM per mg/kg TBW
PAN plasma AUCtot, Mean (SD) ([2]; CYP2C19 genotype *2*2 (n=1)): 226.59 (–) µM per mg/kg TBW
PAN plasma AUCtot, Mean (SD) ([2]; CYP2C19 genotype *2*17 (n=3)): 10.42 (3.40) µM per mg/kg TBW
PAN plasma AUCtot, Range ([2]; CYP2C19 genotype *2*17 (n=3)): [7.71–14.23] µM per mg/kg TBW
PAN plasma AUCtot, Mean (SD) ([2]; CYP2C19 genotype *17*17 (n=1)): 4.18 (–) µM per mg/kg TBW
Structure (SMILES): COc1ccnc(C[S+]([O-])c2nc3ccc(OC(F)F)cc3[nH]2)c1OC (centres unmarked) [PAN, pantoprazole]
typical therapeutic PAN plasma AUCtot [1]: 7 to 17 µM
